Measurements from ChEMBL document CHEMBL1201862, “PubChem BioAssay data set” (2004).
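All cell lines were grown in 96-well plates and treated with compound for 48 hours. GI50 marks 50% less growth.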 Active and inactive are the calls of the source. Cut-off read from the data, not from the text of the source: active = GI50 up to about 1.1 µM and inactive = higher.

Legend:
Test in all cases: DTP human tumour cell line panel, 48 h
[1] = test system: HCT-116
[2] = test system: HOP-92
[3] = test system: HT-29
[4] = test system: IGROV-1
[5] = test system: KM12
[6] = test system: Malme-3M
[7] = test system: NCI-H226
[8] = test system: NCI-H23
[9] = test system: OVCAR-5
[10] = test system: OVCAR-8
[11] = test system: SF-268
[12] = test system: SF-295
[13] = test system: SK-MEL-28
[14] = test system: SK-MEL-2
[15] = test system: SK-MEL-5
[16] = test system: SNB-19
[17] = test system: SR
[18] = test system: UACC-257
[19] = test system: UACC-62
[20] = test system: HL-60

Compound	GI50 [1]	GI50 [2]	GI50 [3]	GI50 [4]	GI50 [5]	GI50 [6]	GI50 [7]	GI50 [8]	GI50 [9]	GI50 [10]	GI50 [11]	GI50 [12]	GI50 [13]	GI50 [14]	GI50 [15]	GI50 [16]	GI50 [17]	GI50 [18]	GI50 [19]	GI50 [20]
COc1ccc(N2C(=O)C3c4[nH]c5c(C)cccc5c4C4CCC(C(C)C)CC4C3C2=O)cc1 (configuration not stated)	9.73 µM (inactive)	12.1 µM (inactive)	3.37 µM (inactive)	8.99 µM (inactive)	6.75 µM (inactive)	13.4 µM (inactive)	13.9 µM (inactive)	17.3 µM (inactive)	14 µM (inactive)	12.1 µM (inactive)	6.01 µM (inactive)	14.7 µM (inactive)	13 µM (inactive)	16.7 µM (inactive)	12 µM (inactive)	22.1 µM (inactive)	4.68 µM (inactive)	31 µM (inactive)	> 10 µM (inactive)	
C=COC(=O)N1C2CCCC(Cl)(C(C)=O)C1CC2 (configuration not stated)	> 100 µM (inactive)	> 100 µM (inactive)	> 100 µM (inactive)	> 100 µM (inactive)	> 100 µM (inactive)	87.5 µM (inactive)	> 100 µM (inactive)	> 100 µM (inactive)	> 100 µM (inactive)	> 100 µM (inactive)	66.1 µM (inactive)	> 100 µM (inactive)	> 100 µM (inactive)	> 100 µM (inactive)	> 100 µM (inactive)	> 100 µM (inactive)	> 100 µM (inactive)	> 100 µM (inactive)	> 100 µM (inactive)	
C/C(Cl)=N\OC(=O)Nc1ccccc1C(F)(F)F	33.4 µM (inactive)	6.61 µM (inactive)	18.9 µM (inactive)	> 100 µM (inactive)	> 100 µM (inactive)	20.9 µM (inactive)		> 100 µM (inactive)	42.6 µM (inactive)	38.9 µM (inactive)	> 100 µM (inactive)	> 100 µM (inactive)	17.8 µM (inactive)	> 100 µM (inactive)	> 100 µM (inactive)	> 100 µM (inactive)	17.1 µM (inactive)	> 100 µM (inactive)		3.5 µM (inactive)
O=C1c2cc3c(cc2CC12Cc1cc4c(cc1C2)CCC4)CCC3	> 100 µM (inactive)	> 100 µM (inactive)	93.8 µM (inactive)	> 100 µM (inactive)	> 100 µM (inactive)	> 100 µM (inactive)		> 100 µM (inactive)	> 100 µM (inactive)	> 100 µM (inactive)	> 100 µM (inactive)	> 100 µM (inactive)	> 100 µM (inactive)	> 100 µM (inactive)	> 100 µM (inactive)	> 100 µM (inactive)	> 100 µM (inactive)	> 100 µM (inactive)		59.6 µM (inactive)
CC(=O)O/N=C/c1c2ccccc2cc2ccccc12	41.6 µM (inactive)	> 100 µM (inactive)	57.7 µM (inactive)		61.8 µM (inactive)	47 µM (inactive)	46.9 µM (inactive)	76.6 µM (inactive)	> 100 µM (inactive)	19.1 µM (inactive)	61.1 µM (inactive)	47.4 µM (inactive)	89.3 µM (inactive)		58.9 µM (inactive)	50.5 µM (inactive)	28 µM (inactive)	> 100 µM (inactive)	40.9 µM (inactive)	> 100 µM (inactive)
CCOC(=O)CNC(=O)C(C)NC(=O)C(NC(=O)CC(c1ncc[nH]1)c1ncc[nH]1)C(C)CC (configuration not stated)	> 100 µM (inactive)	> 100 µM (inactive)		> 100 µM (inactive)	> 100 µM (inactive)	> 100 µM (inactive)		> 100 µM (inactive)	> 100 µM (inactive)	> 100 µM (inactive)	> 100 µM (inactive)	> 100 µM (inactive)	> 100 µM (inactive)	> 100 µM (inactive)		> 100 µM (inactive)	> 100 µM (inactive)	> 100 µM (inactive)	> 100 µM (inactive)	> 100 µM (inactive)
CSc1nc(NCc2ccccc2)c2cnn(COCCO)c2n1	62.8 µM (inactive)	18.2 µM (inactive)	37.8 µM (inactive)	40.7 µM (inactive)	80 µM (inactive)	42.9 µM (inactive)	55.5 µM (inactive)	24.5 µM (inactive)	> 100 µM (inactive)	42.7 µM (inactive)	43.8 µM (inactive)	35.5 µM (inactive)		43.7 µM (inactive)	41.5 µM (inactive)		69.7 µM (inactive)	20.3 µM (inactive)	43.9 µM (inactive)	42.7 µM (inactive)
Cc1nn(C(=O)c2ccccc2O)c2c1C(c1ccccc1O)SC(=N)N2 (configuration not stated)	4.12 µM (inactive)	> 10 µM (inactive)	> 10 µM (inactive)	1.01 µM (active)	4.65 µM (inactive)	> 10 µM (inactive)	1.49 µM (inactive)	2.94 µM (inactive)	6.32 µM (inactive)	2.82 µM (inactive)	6.81 µM (inactive)	7.53 µM (inactive)	> 10 µM (inactive)	4.65 µM (inactive)	2.46 µM (inactive)		1.95 µM (inactive)	1.5 µM (inactive)	3.08 µM (inactive)	2.22 µM (inactive)
O=CN1CCN(c2ccc3ccc(O)nc3n2)CC1	> 100 µM (inactive)	> 100 µM (inactive)	> 100 µM (inactive)	> 100 µM (inactive)	> 100 µM (inactive)	> 100 µM (inactive)	> 100 µM (inactive)	> 100 µM (inactive)	> 100 µM (inactive)	> 100 µM (inactive)	69.8 µM (inactive)	> 100 µM (inactive)	> 100 µM (inactive)	> 100 µM (inactive)		> 100 µM (inactive)	> 100 µM (inactive)	> 100 µM (inactive)	> 100 µM (inactive)	> 100 µM (inactive)
O=C1CC2C(=O)N(Cc3ccccc3)C1C(S(=O)(=O)c1ccccc1)C2S(=O)(=O)c1ccccc1 (configuration not stated)	4.68 µM (inactive)	2.15 µM (inactive)	2.17 µM (inactive)	20.9 µM (inactive)	13.7 µM (inactive)	2 µM (inactive)	13.3 µM (inactive)	3.25 µM (inactive)	18 µM (inactive)	1.94 µM (inactive)	3.44 µM (inactive)	22.6 µM (inactive)	1.9 µM (inactive)		15.7 µM (inactive)		2.48 µM (inactive)	1.61 µM (inactive)	1.84 µM (inactive)	1.62 µM (inactive)
COc1ccc(/C=C2/SC(c3c(O)ccc4ccccc34)N(NC(=O)CCCCCCCCC(=O)NN3C(=O)/C(=C\c4ccc(OC)c(OC)c4)SC3c3c(O)ccc4ccccc34)C2=O)cc1OC (configuration not stated)	0.345 µM (active)	1.09 µM (active)	3.65 µM (inactive)	0.481 µM (active)	5.16 µM (inactive)	2 µM (inactive)	0.855 µM (active)	2.22 µM (inactive)	21.5 µM (inactive)	0.553 µM (active)	0.418 µM (active)	1.39 µM (inactive)	2.98 µM (inactive)	1.08 µM (active)	0.318 µM (active)	9.2 µM (inactive)	0.0962 µM (active)	2.37 µM (inactive)	1.56 µM (inactive)	
C/C(=N/NC(=O)CC(=O)N(C(=O)c1ccccc1Cl)c1ccc(C)cc1)c1cc2ccccc2oc1=O	> 100 µM (inactive)	21.5 µM (inactive)	> 100 µM (inactive)	> 100 µM (inactive)	> 100 µM (inactive)	> 100 µM (inactive)	> 100 µM (inactive)	45.5 µM (inactive)	> 100 µM (inactive)	> 100 µM (inactive)	> 100 µM (inactive)	> 100 µM (inactive)	> 100 µM (inactive)		65.3 µM (inactive)	> 100 µM (inactive)	6.11 µM (inactive)	> 100 µM (inactive)	> 100 µM (inactive)	> 100 µM (inactive)
C=C(Br)C(C)(Cl)CCC(Br)C(C)(C)Cl (configuration not stated)	34.9 µM (inactive)	35.1 µM (inactive)	34.6 µM (inactive)	77.3 µM (inactive)	34.2 µM (inactive)	23.4 µM (inactive)	25.6 µM (inactive)	41.9 µM (inactive)	56.4 µM (inactive)	64.1 µM (inactive)	63.8 µM (inactive)	34.8 µM (inactive)	> 100 µM (inactive)		34.2 µM (inactive)	> 100 µM (inactive)	> 100 µM (inactive)	28.9 µM (inactive)	86.9 µM (inactive)	20.3 µM (inactive)
O=c1c2c3c(sc2nc2n1N=C(c1ccc([N+](=O)[O-])cc1)CS2)CCCC3	> 100 µM (inactive)	> 100 µM (inactive)	> 100 µM (inactive)	> 100 µM (inactive)	> 100 µM (inactive)	> 100 µM (inactive)	> 100 µM (inactive)	> 100 µM (inactive)	> 100 µM (inactive)	> 100 µM (inactive)	> 100 µM (inactive)	> 100 µM (inactive)	> 100 µM (inactive)		> 100 µM (inactive)		> 100 µM (inactive)	> 100 µM (inactive)	> 100 µM (inactive)	> 100 µM (inactive)
FC(F)(F)c1ccc2c(c1)N(CCCNCCN1CCOCC1)c1ccccc1S2	3.17 µM (inactive)	3.4 µM (inactive)	3.24 µM (inactive)	15.8 µM (inactive)	11.6 µM (inactive)	2.44 µM (inactive)		12.3 µM (inactive)	11.3 µM (inactive)	16.6 µM (inactive)	15.9 µM (inactive)	13.3 µM (inactive)	5.2 µM (inactive)	3.66 µM (inactive)	3.8 µM (inactive)	16.1 µM (inactive)	6.32 µM (inactive)	10.9 µM (inactive)	13.2 µM (inactive)	6.07 µM (inactive)
